Source: article PMC4594035, “Xenopus borealis as an alternative source of oocytes for biophysical and pharmacological studies of neuronal ion channels” (Scientific Reports, 2015)
Like-named read-outs stand apart in the source and are kept apart here. Bridge positions count the residues as written; N and C are the ends. Ends that are not written are not given here.

Key:
α1β2γ2L GABAAR = α1β2γ2L GABAAR (Homo sapiens, UniProt P14867+P47870); assay: GABA activation of α1β2γ2L GABAAR, two-electrode voltage-clamp in Xenopus oocytes; assay type: cell-based; details: n = 9–10; for Slope (Hill coefficient): mean
Chain of α1β2γ2L GABAAR (P14867 28-456): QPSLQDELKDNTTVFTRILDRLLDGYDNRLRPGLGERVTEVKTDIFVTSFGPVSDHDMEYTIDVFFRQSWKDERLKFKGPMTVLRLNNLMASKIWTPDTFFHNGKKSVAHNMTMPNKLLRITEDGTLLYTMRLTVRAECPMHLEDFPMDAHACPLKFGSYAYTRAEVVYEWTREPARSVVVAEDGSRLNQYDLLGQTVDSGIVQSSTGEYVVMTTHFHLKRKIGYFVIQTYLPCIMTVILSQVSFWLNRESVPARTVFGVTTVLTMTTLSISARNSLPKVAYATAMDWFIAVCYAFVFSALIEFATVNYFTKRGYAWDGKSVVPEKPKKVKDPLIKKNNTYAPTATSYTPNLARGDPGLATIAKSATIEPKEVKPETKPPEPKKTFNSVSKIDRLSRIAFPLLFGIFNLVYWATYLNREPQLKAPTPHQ
Chain of α1β2γ2L GABAAR (P47870 26-512): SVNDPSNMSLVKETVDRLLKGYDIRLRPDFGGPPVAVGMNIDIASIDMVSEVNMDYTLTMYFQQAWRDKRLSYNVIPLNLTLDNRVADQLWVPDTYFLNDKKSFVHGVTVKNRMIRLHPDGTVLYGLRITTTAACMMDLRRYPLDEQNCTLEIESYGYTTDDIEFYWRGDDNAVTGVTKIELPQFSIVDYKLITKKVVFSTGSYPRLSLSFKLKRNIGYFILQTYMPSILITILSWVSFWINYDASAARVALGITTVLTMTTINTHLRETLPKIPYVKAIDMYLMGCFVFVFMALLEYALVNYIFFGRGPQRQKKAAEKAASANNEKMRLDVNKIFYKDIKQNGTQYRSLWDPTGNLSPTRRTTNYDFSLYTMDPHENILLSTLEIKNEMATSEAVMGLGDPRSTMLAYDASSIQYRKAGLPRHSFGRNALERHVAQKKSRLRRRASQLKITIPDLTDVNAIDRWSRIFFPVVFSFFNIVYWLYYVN
Chain of α1β2γ2L GABAAR (P18507 40-475 partner): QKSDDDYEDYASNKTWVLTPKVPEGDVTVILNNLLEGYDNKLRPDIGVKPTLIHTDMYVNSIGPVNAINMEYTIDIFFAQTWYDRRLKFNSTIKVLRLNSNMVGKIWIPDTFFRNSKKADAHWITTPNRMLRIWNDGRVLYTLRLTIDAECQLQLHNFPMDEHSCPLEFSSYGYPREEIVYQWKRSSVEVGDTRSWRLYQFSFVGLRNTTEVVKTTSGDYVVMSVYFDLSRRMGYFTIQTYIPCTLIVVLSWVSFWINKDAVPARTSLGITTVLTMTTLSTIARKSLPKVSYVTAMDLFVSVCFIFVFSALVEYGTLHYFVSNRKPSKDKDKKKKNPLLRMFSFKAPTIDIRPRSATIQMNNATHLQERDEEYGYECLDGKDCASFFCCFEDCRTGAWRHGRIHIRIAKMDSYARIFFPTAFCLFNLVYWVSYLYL
Experimental: (§1) X. laevis (Xenopus Express) and X. borealis (Nasco) oocytes were surgically removed from anaesthetised (Tricaine methanesulfonate, MS-222) female frogs and treated with collagenase (1 mg/ml; Sigma type I) for defolliculation. cRNAs were synthesised using an mMessage mMachine cRNA transcription kit (Ambion Inc., Austin, TX, USA) and injected into stage V–VI oocytes at 4–200 ng per cell. Oocytes were stored at 17 °C in ND96 solution (96 mM NaCl, 1.8 mM CaCl2, 2 mM KCl, 2 mM MgCl2, 5 mM HEPES, pH 7.4) supplemented with 2.5 mM pyruvic acid, 50 μg/mL gentamicin, and either 2.5% horse serum or 0.5 mM theophylline. Membrane currents were recorded 2–10 days after injection under voltage-clamp (Axoclamp 900A or Geneclamp 500B, Molecular Devices, CA, USA) using two standard glass microelectrodes of 0.5–2 MΩ resistance when filled with 3 M KCl solution. Data acquisition and analysis were performed using pCLAMP software (Version 9.2 or 10, Molecular Devices, Sunnyvale, CA, USA). All experiments were performed at room temperature (18–21 °C) in ND96 solution. Experiments containing peptides were performed in ND96 solution containing 0.1% fatty acid free-bovine serum albumin (Sigma). Recordings were performed as previously described for ASICs[30][31], GABAAR[32][33], GlyR[34], KV[6][8][35], and NaV[36] channels.
(§2) All data were analysed using Prism 6.0 (GraphPad Software, San Diego, CA, USA). The Hill equation was fitted to normalised concentration-response curves to obtain the half-maximal response (EC50, IC50, or pH50) and Hill coefficient (nH). Voltage-dependent activation curves were fit with the Boltzmann equation to obtain the V0.5 (the voltage corresponding to half-maximal effect). Data are shown as mean and 95% confidence intervals, and n represents the number of oocytes for a given experiment (taken from at least three different frogs). […] For both t-tests, it was assumed data was sampled from Gaussian populations, and P values were calculated from two-tailed tests. […]

α5β2γ2L GABAAR = α5β2γ2L GABAAR (Homo sapiens, UniProt P31644+P47870); assay: GABA activation of α5β2γ2L GABAAR, two-electrode voltage-clamp in Xenopus oocytes; assay type: cell-based; details: n = 9–10; for Slope (Hill coefficient): mean
Chain of α5β2γ2L GABAAR (P31644 32-462): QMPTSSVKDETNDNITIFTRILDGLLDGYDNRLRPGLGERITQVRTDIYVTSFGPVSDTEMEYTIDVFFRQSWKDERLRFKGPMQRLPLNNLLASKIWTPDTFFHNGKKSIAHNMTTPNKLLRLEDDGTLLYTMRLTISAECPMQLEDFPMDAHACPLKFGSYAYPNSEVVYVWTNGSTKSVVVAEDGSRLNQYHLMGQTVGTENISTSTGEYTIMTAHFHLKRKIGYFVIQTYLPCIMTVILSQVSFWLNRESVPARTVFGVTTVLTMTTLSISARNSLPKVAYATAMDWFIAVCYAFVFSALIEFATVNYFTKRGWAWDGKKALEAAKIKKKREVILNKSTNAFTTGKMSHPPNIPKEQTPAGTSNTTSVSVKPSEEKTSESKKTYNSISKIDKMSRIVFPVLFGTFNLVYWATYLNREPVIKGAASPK
Chain of α5β2γ2L GABAAR (P47870 26-512): as the sequence (P47870 26-512) above
Chain of α5β2γ2L GABAAR (P18507 40-475 partner): as the sequence (P18507 40-475 partner) above
Experimental: as §1, §2

α5β3γ2L GABAAR = α5β3γ2L GABAAR (Homo sapiens, UniProt P28472+P31644); assay: GABA activation of α5β3γ2L GABAAR, two-electrode voltage-clamp in Xenopus oocytes; assay type: cell-based; details: n = 9–10; for Slope (Hill coefficient): mean
Chain of α5β3γ2L GABAAR (P31644 32-462): as the sequence (P31644 32-462) above
Chain of α5β3γ2L GABAAR (P28472 26-473): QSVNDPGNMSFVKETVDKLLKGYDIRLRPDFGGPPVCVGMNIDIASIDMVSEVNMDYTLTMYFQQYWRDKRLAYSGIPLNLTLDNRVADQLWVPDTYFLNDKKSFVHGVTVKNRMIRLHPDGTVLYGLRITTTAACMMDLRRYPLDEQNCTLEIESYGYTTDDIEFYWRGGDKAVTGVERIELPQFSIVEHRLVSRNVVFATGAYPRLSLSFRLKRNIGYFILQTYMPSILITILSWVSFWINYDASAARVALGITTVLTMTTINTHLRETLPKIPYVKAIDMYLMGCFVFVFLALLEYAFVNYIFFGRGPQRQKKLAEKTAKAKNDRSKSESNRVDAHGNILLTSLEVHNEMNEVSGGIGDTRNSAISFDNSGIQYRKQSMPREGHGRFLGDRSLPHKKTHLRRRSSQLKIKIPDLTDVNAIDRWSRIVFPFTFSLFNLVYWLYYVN
Chain of α5β3γ2L GABAAR (P18507 40-475 partner): as the sequence (P18507 40-475 partner) above
Experimental: as §1, §2

α1N203C GlyR = details: for ΔFmax (maximal fluorescence change) / ΔImax (maximal current change) / Slope, ΔF / Slope, ΔI / EC50: MTS-TAMRA labelled, mean ± s.e.m.; for Slope, ΔF / Slope, ΔI / EC50: n = 4–6; for EC50: −40 mV
Description: (§3) This technique permits the real time monitoring of conformational changes in ion channel domains distant from the gate. It involves introducing a cysteine into the ion channel domain of interest and covalently labelling it with a sulfhydryl-reactive rhodamine derivative such as MTSR. As the quantum efficiency of the rhodamine depends on the hydrophobicity of its environment, protein conformational changes occurring in the immediate vicinity of the attached fluorophore are likely to change the hydrophobicity of its environment and thus produce a fluorescence change. […] Conformational changes at the channel gate are monitored simultaneously using two-electrode voltage-clamp. For these recordings, DNA encoding the α1 GlyR subunit was subcloned into pGEMHE, a plasmid vector optimised for oocyte expression. […] Both sites have previously been characterised extensively using voltage-clamp fluorometry. A C41A mutation was incorporated into the α1 GlyR to eliminate the sole non-crosslinked extracellular sulfhydryl group. Site directed mutagenesis was performed using the QuikChange mutagenesis kit (Stratagene).
(§4) On the day of recording, oocytes were transferred into ND96 and stored on ice. For a subset of experiments, a modified version of the previously described approach[39] for vitelline membrane disruption and removal was performed by incubating oocytes in ND96 containing 0.5 mg/ml protease (protease type VIII from Bacillus licheniformis, Sigma-Aldrich) for 1–1.5 min before labelling. Following this, a sequential wash step was performed by transferring oocytes into fresh ND96 solution five consecutive times. To label with either MTSR or MTS-TAMRA (Toronto Research Chemicals), oocytes were transferred into labelling solution containing 10 μM of either compound in ND96 for 25 s. The oocytes were then washed and stored in ND96 for up to 6 h before recording. All labelling steps were performed on ice.
(§5) We recently described the experimental set up in detail. Briefly, we employed an inverted microscope (Eclipse TE300, Nikon Instruments) equipped with a high-Q tetramethylrhodamine isothiocyanate filter set (Chroma Technology), a Plan Fluor X40 objective (Nikon Instruments) and an H7360-03 photomultiplier detection system (Hamamatsu Photonics) attached to the side port of the microscope. An excitation filter wheel including a shutter and emission filter wheel were controlled through a Lambda 10-2 unit (Sutter Instruments). A Lambda LS 175 W xenon arc lamp served as a light source and was coupled to the microscope via a liquid light guide (Sutter Instruments). The design of the custom-made recording chamber has been described. An automated perfusion system operated by a ValveBank-8 valve controller (AutoMate Scientific) was used for perfusion of the recording chamber. Electrodes were moved by automated ROE-200 micromanipulators coupled to an MPC-200 controller (Sutter Instruments). Cells were voltage-clamped at −40 mV and currents recorded using a Gene Clamp 500B amplifier (Molecular Devices). Current and fluorescence traces were acquired at 200 Hz via a Digidata 1322A interface and pCLAMP 9.2 software.
(§6) All data were analysed using Prism 6.0 (GraphPad Software, San Diego, CA, USA). The Hill equation was fitted to normalised concentration-response curves to obtain the half-maximal response (EC50, IC50, or pH50) and Hill coefficient (nH). Voltage-dependent activation curves were fit with the Boltzmann equation to obtain the V0.5 (the voltage corresponding to half-maximal effect). Data are shown as mean and 95% confidence intervals, and n represents the number of oocytes for a given experiment (taken from at least three different frogs). Most equivalence testing comparing X. laevis and X. borealis oocytes was performed using an unpaired Student’s t-test with 95% confidence intervals.

α1R271C GlyR = details: MTSR labelled, mean ± s.e.m.; for Slope, ΔF / Slope, ΔI / EC50: n = 4–6; for EC50: −40 mV
Description: as §3, §4, §5, §6

rat ASIC3 = biological target: T1, rat ASIC3 (Rattus norvegicus, UniProt O35240); assay: Inhibition of rat ASIC3 by APETx2, two-electrode voltage-clamp in Xenopus oocytes; assay type: cell-based; details: ND96 with 0.1% fatty acid free-bovine serum albumin, 18–21 °C, mean, n = 9, Supplementary Table S3, read-out: IC50 (half-maximal response)
T1 construct: expressed in transfected cells; host or cells: Xenopus laevis and Xenopus borealis oocytes (cRNA injection)
T1 sequence (O35240 1-533): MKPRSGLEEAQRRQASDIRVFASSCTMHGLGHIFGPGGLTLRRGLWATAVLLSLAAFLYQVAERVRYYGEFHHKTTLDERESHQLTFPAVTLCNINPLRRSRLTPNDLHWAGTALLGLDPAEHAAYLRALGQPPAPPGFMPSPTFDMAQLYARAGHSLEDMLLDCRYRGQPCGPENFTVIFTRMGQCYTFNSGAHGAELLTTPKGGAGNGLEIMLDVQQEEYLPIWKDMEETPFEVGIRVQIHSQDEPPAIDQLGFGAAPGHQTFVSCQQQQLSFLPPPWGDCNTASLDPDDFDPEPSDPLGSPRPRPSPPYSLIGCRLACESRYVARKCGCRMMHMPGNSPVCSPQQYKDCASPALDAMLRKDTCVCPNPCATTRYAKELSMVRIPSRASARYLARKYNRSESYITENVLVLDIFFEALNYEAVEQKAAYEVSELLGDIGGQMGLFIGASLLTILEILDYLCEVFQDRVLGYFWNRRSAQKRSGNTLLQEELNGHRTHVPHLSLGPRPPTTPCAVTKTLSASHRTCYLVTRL
Experimental: as §1, with “Recordings were performed as previously described for ASICs[30][31], GABAAR[32][33], GlyR[34], KV[6][8][35], and NaV[36] channels.” left out
(§7) All data were analysed using Prism 6.0 (GraphPad Software, San Diego, CA, USA). […] For both t-tests, it was assumed data was sampled from Gaussian populations, and P values were calculated from two-tailed tests. […]

NaV1.2 = assay: Inhibition of NaV1.2 by ProTx-I, two-electrode voltage-clamp in Xenopus oocytes; assay type: cell-based; details: 300 nM ProTx-I; depolarisation to –15 mV from holding potential −80 mV; n = 8–9; Fig. 3f; P > 0.05
Experimental: as §1, with “Recordings were performed as previously described for ASICs[30][31], GABAAR[32][33], GlyR[34], KV[6][8][35], and NaV[36] channels.” left out
as §7

NaV1.5 = assay: Inhibition of NaV1.5 by ProTx-I, two-electrode voltage-clamp in Xenopus oocytes; assay type: cell-based; details: 300 nM ProTx-I; depolarisation to –15 mV from holding potential −80 mV; n = 8–9; Fig. 3f; P > 0.05
Experimental: as §1, with “Recordings were performed as previously described for ASICs[30][31], GABAAR[32][33], GlyR[34], KV[6][8][35], and NaV[36] channels.” left out
as §7

NaV1.7 = assay: Inhibition of NaV1.7 by ProTx-I, two-electrode voltage-clamp in Xenopus oocytes; assay type: cell-based; details: 300 nM ProTx-I; depolarisation to –15 mV from holding potential −80 mV; n = 8–9; Fig. 3f; P > 0.05
Experimental: as §1, with “Recordings were performed as previously described for ASICs[30][31], GABAAR[32][33], GlyR[34], KV[6][8][35], and NaV[36] channels.” left out
as §7

NaV channel = details: cited from earlier work
Experimental: Two-electrode voltage-clamp electrophysiology recordings were performed to compare the properties of a panel of KV and voltage-gated sodium (NaV) channels heterologously expressed in X. laevis and X. borealis oocytes. […] Conductance-voltage relationship curves obtained for NaV1.2 (Fig. 3c), NaV1.5 (Fig. 3d), and NaV1.7 (Fig. 3e) overlap ...

[1] = X. laevis compared with X. borealis oocytes
[2] = read-out: EC50, ΔF (glycine-induced fluorescence change), X. laevis oocytes
[3] = read-out: EC50, ΔI (glycine-induced current), X. borealis oocytes
[4] = read-out: EC50, ΔI (glycine-induced current), X. laevis oocytes

NCCCC(=O)O [GABA, γ-aminobutyric acid]
Slope (Hill coefficient) (α1β2γ2L GABAAR; X. borealis oocytes): 0.60 | Concentration-effect curves for GABA activation, X. laevis vs X. borealis (α1β2γ2L GABAAR; [1]): no difference in the concentration-effect curves | Slope (Hill coefficient) (α1β2γ2L GABAAR; X. laevis oocytes): 0.56 | Slope (Hill coefficient) (α5β2γ2L GABAAR; X. borealis oocytes): 0.74 | Concentration-effect curves for GABA activation, X. laevis vs X. borealis (α5β2γ2L GABAAR; [1]): no difference in the concentration-effect curves | Slope (Hill coefficient) (α5β2γ2L GABAAR; X. laevis oocytes): 0.49 | Slope (Hill coefficient) (α5β3γ2L GABAAR; X. borealis oocytes): 0.93 | Concentration-effect curves for GABA activation, X. laevis vs X. borealis (α5β3γ2L GABAAR; [1]): no difference in the concentration-effect curves | Slope (Hill coefficient) (α5β3γ2L GABAAR; X. laevis oocytes): 0.75

NCC(=O)O [glycine]
ΔF after 1 min protease treatment vs untreated oocytes (α1N203C GlyR; 10 μM glycine, protease (type VIII, 0.5 mg/ml) 1 min before labelling, n = 7, Fig. 5b): A significant increase in ΔF was obtained after 1 min treatment with protease for X. borealis, but not X. laevis, oocytes | ΔFmax (maximal fluorescence change) (α1N203C GlyR; X. borealis oocytes): 27.8 ± 4.4% | ΔImax (maximal current change) (α1N203C GlyR; X. borealis oocytes): 8.0 ± 0.8 µA | Slope, ΔF (α1N203C GlyR; X. borealis oocytes): 1.8 ± 0.1 | Slope, ΔI (α1N203C GlyR; X. borealis oocytes): 1.5 ± 0.1 | ΔFmax (maximal fluorescence change) (α1N203C GlyR; X. laevis oocytes): 25.9 ± 4.2% | ΔImax (maximal current change) (α1N203C GlyR; X. laevis oocytes): 8.4 ± 0.2 µA | Slope, ΔF (α1N203C GlyR; X. laevis oocytes): 1.4 ± 0.2 | Slope, ΔI (α1N203C GlyR; X. laevis oocytes): 1.9 ± 0.2 | EC50 (α1N203C GlyR; [2]): 548 ± 25 µM | EC50 (α1N203C GlyR; [3]): 136 ± 8.7 µM | EC50 (α1N203C GlyR; [4]): 145 ± 10 µM | ΔFmax (maximal fluorescence change) (α1R271C GlyR; X. borealis oocytes): 9.0 ± 2.2% | ΔImax (maximal current change) (α1R271C GlyR; X. borealis oocytes): 2.7 ± 0.5 µA | Slope, ΔF (α1R271C GlyR; X. borealis oocytes): 1.0 ± 0.1 | Slope, ΔI (α1R271C GlyR; X. borealis oocytes): 2.0 ± 0.2 | ΔFmax (maximal fluorescence change) (α1R271C GlyR; X. laevis oocytes): 12.2 ± 2.2% | ΔImax (maximal current change) (α1R271C GlyR; X. laevis oocytes): 3.4 ± 1.7 µA | Slope, ΔF (α1R271C GlyR; X. laevis oocytes): 1.3 ± 0.2 | Slope, ΔI (α1R271C GlyR; X. laevis oocytes): 1.4 ± 0.2 | EC50 (α1R271C GlyR; read-out: EC50, ΔF (glycine-induced fluorescence change), X. borealis oocytes): 1010 ± 98 µM | EC50 (α1R271C GlyR; [2]): 872 ± 58 µM | EC50 (α1R271C GlyR; [3]): 1700 ± 104 µM | EC50 (α1R271C GlyR; [4]): 1930 ± 175 µM

GTACSCGNSKGIYWFYRPSCPTDRGYTGSCRYFLGTCCTPAD (disulfide 4-37, 6-30, 20-38) [APETx2]
IC50 (rat ASIC3; X. borealis oocytes): 0.0511 µM | IC50 (rat ASIC3; X. laevis oocytes): 0.0647 µM

ProTx-I
Inhibition by ProTx-I, X. laevis vs X. borealis (NaV1.2): Comparable levels of inhibition between species | Inhibition by ProTx-I, X. laevis vs X. borealis (NaV1.5): Comparable levels of inhibition between species | Inhibition by ProTx-I, X. laevis vs X. borealis (NaV1.7): Comparable levels of inhibition between species | NaV channel inhibition (NaV channel): potent and non-selective NaV channel inhibitor
